What was measured:
Format in all cases: physicochemical, human
[1] = LC/MS of serum sample: time from centrifugation to isolation (Table K); parameters: key to Rate of increase or decrease: detection intensity relative to the 30-minute value set as 1; settings: for Rate of increase or decrease: after 1 hour from centrifugation to isolation, detection intensity relative to 1 at 30 minutes; for Increase or decrease / Time when compound is affected: serum sample, LC/MS; for Increase or decrease: detection intensity vs 30 minutes from centrifugation to isolation; for Time when compound is affected: time from centrifugation to isolation, detection intensity changed by 30% or more vs 30 minutes
Summary of the method: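 Serum left at room temperature 30 min, 1 h or 6 h between centrifugation (3500 rpm, 5 min, room temperature) and isolation, then frozen and analysed by LC/MS (Discovery HS F5-3 column, 40° C., 0.1% formic acid water/acetonitrile, electrospray, MRM). Values are detection intensity relative to the 30-min condition set to 1.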

[2] = LC/MS of serum sample: number of times of freezing and thawing (Table M); parameters: key to Rate of increase or decrease: detection intensity relative to 1 at 2 freeze-thaw cycles; settings: for Number of times when compound is affected / Increase or decrease: serum sample, LC/MS; for Number of times when compound is affected: detection intensity changed by 30% or more vs 2 times of freezing and thawing; for Increase or decrease: detection intensity vs 2 times of freezing and thawing
Summary of the method: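 Values are detection intensities relative to serum thawed twice, versus 4, 6 or 10 freeze-thaw cycles. Serum came from blood spun at room temperature, 3500 rpm for 5 minutes. Analysis: electrospray LC/MS in MRM mode, Discovery HS F5-3 column, 40° C, 0.1% formic acid in water and acetonitrile.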

[3] = LC/MS of blood plasma sample: time from blood collection to centrifugation (Table D); settings: blood collection to centrifugation; for Rate of increase or decrease: detection intensity relative to 1 at 15 minutes, after 4 hours; for Increase or decrease: detection intensity, after 4 hours vs 15 minutes
Summary of the method: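 Detection intensities are expressed relative to samples centrifuged 15 min after collection (=1), measured by electrospray LC/MS in MRM mode (Discovery HS F5-3, 40 °C, formic acid water/acetonitrile gradient at 0.25 mL/min). EDTA blood from a healthy donor was held at 4 °C, centrifuged at 4 °C, 3000 rpm, 15 min, and plasma frozen.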

[4] = LC/MS of blood plasma sample: time from blood collection to cooling of blood (Table E); parameters: key to Rate of increase or decrease / Rate of increase or decrease (first value, increase): detection intensity relative to ≤1 min to cooling = 1; settings: for Increase or decrease: detection intensity, blood collection to cooling 5 minutes or more vs 1 minute or less
[5] = LC/MS of blood plasma sample: number of times of freezing and thawing (Table F); settings: for Rate of increase or decrease: detection intensity relative to 1 at 2 times, freezing and thawing 4 times; for Increase or decrease: detection intensity, freezing and thawing 4 times vs 2 times
Summary of the method: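 Values are detection intensities normalised to 1 for plasma thawed twice, compared against 4, 6 and 10 freeze-thaw cycles. Measured by electrospray LC/MS in MRM mode, formic acid water/acetonitrile mobile phase, column at 40° C. Plasma came from EDTA blood, cooled to 4° C and spun at 3000 rpm for 15 min.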

[6] = GC/MS of serum sample: time from blood collection to centrifugation (Table G); settings: blood collection to centrifugation
Summary of the method: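 Values express detection intensity as a ratio to the sample centrifuged 15 minutes after blood collection (taken as 1). Serum was derivatized by methoxymation and trimethylsilylation, then analysed by electron-ionization GC/MS using multiple reaction monitoring on a BPX5 column ramped from 60 to 330° C.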

[7] = LC/MS of serum sample: time from blood collection to centrifugation (Table J); settings: for Rate of increase or decrease: after 4 hours from blood collection to centrifugation, detection intensity relative to 1 at 15 minutes; for Increase or decrease / Time when compound is affected: serum sample, LC/MS; for Increase or decrease: detection intensity vs 15 minutes from blood collection to centrifugation; for Time when compound is affected: time from blood collection to centrifugation, detection intensity changed by 30% or more vs 15 minutes
Summary of the method: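 Detection intensities are expressed relative to 1 for samples centrifuged 15 min after blood collection; centrifugation was at room temperature, 3500 rpm, 5 min. Frozen serum was run by electrospray LC-MS in MRM mode, with 0.1% formic acid water/acetonitrile at 0.25 mL/min on a 40 °C F5 column.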

[8] = GC/MS of serum sample: number of times of freezing and thawing (Table I); parameters: key to Rate of increase or decrease / Rate of increase or decrease (first value, increase): detection intensity relative to 2 freeze-thaw cycles = 1; settings: serum, GC/MS
Summary of the method: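 Detection intensities are ratios to the value after two freeze–thaw cycles, which is set as 1, compared against 4, 6 and 10 cycles. Analysis used methoxymation and trimethylsilylation derivatization, then GC/MS with EI ionization and multiple reaction monitoring on a BPX5 column. Serum came from blood held at room temperature and spun at 3500 rpm for 5 min.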

[9] = GC/MS of serum sample: time from centrifugation to isolation (Table H); parameters: key to Rate of increase or decrease / Rate of increase or decrease (first value, increase): detection intensity relative to 1 at 30 min centrifugation-to-isolation
Summary of the method: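 Values are GC/MS (EI, MRM) detection intensities of methoxymated/trimethylsilylated serum, normalised to 1 for the 30-min sample. Serum was isolated 30 min, 1 h or 6 h after room-temperature centrifugation (3500 rpm, 5 min) of blood.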

Structure (SMILES)	Rate of increase or decrease [1]	Increase or decrease [1]	Time when compound is affected [1]	Number of times when compound is affected [2] [times]	Increase or decrease [2]	Rate of increase or decrease [3]	Increase or decrease [3]	Increase or decrease [4]	Rate of increase or decrease [5]	Increase or decrease [5]	Rate of increase or decrease [7]	Increase or decrease [7]	Time when compound is affected [7]	other results
Nc1ncnc2c1ncn2[C@@H]1O[C@H](CO)[C@@H](O)[C@H]1O [Adenosine]	0.07	Decrease	After 1 hour hours	4	Decrease	1.39	Increase	Increase	0.58	Decrease	0.29	Decrease	After 4 hours	Rate of increase or decrease ([2]; 4 times of freezing and thawing, detection intensity relative to 1 at 2 times): 0.54; Rate of increase or decrease ([4]; detection intensity relative to 1 at 1 minute or less, blood collection to cooling 5 minutes): 1.52; Rate of increase or decrease ([6]; detection intensity relative to 1 at 15 minutes, after 4 hours): 0.17; Increase or decrease ([6]; detection intensity, after 4 hours vs 15 minutes): Decrease; Rate of increase or decrease ([8]; detection intensity relative to 1 at 2 times, freezing and thawing 4 times): 0.36; Increase or decrease ([8]; detection intensity, freezing and thawing 4 times vs 2 times): Decrease; Rate of increase or decrease ([9]; detection intensity relative to 1 at 30 minutes, after 1 hour): 3.11; Increase or decrease ([9]; detection intensity, after 1 hour vs 30 minutes): Increase
Nc1ncnc2c1ncn2[C@@H]1O[C@H](CSCC[C@H](N)C(=O)O)[C@@H](O)[C@H]1O [S-adenosylhomocysteine]	1.51	Increase	After 1 hour hours	6	Different from individual	0.66	Decrease	Different from individual	2.09	Increase	2.82	Increase	After 4 hours	Rate of increase or decrease ([2]; 6 times of freezing and thawing, relative to 1 at 2 times, different from individual to individual, first value (increase)): 1.62; Rate of increase or decrease ([2]; 6 times of freezing and thawing, relative to 1 at 2 times, different from individual to individual, second value (decrease)): 0.49; Rate of increase or decrease (second value, decrease) ([4]; different from individual to individual, individuals with decrease, relative to 1 at 1 minute or less, collection to cooling 5 minutes): 0.49; Rate of increase or decrease (first value, increase) ([4]; different from individual to individual, individuals with increase, relative to 1 at 1 minute or less, collection to cooling 5 minutes): 1.40

Reference: US20220146526A1, “METHOD FOR EVALUATING SAMPLE, ANALYSIS METHOD, METHOD FOR DETECTING DEGRADED SAMPLE, MARKER FOR DETECTING DEGRADED BLOOD PLASMA SAMPLE, AND MARKER FOR DETECTING DEGRADED SERUM SAMPLE” (SHIMADZU CORPORATION, priority 2019, published 2022)
